Laboratory results from a melting point compilation (Tetko et al.; mined from patent text by program, amines drawn as free bases though some values may be those of a salt).

First: CCOC(=O)CC1CCc2[nH]c3ccccc3c2C1 (configuration not stated)
Second: O=C1NCc2c1c(O)nc1ccccc21
The melting point of the first is lower: 122 to 123 °C for the first, 340 to 350 °C for the second.

First: CCCc1nc2c(N)nc3ccccc3c2n1CCOCCCS(C)(=O)=O
Second: Nc1nc2ccccc2c2c1nc1n2C(CO)COC1 (configuration not stated)
The melting point of the first is lower: 149 to 151 °C for the first, 239 to 240 °C for the second.

Compared with `CCN1CCc2nc(N3CCNCC3)ncc2C1=O`, `O=C(c1cncc(Br)c1)N1CCC(=C2c3ccc(Cl)cc3CCc3cccnc32)CC1` is lower in melting point: 205 to 210 °C for the first, 87.5 to 96.4 °C for the second.

Compared with `COC(=O)NNC(=S)Cc1cccs1`, `CSC(=NCCSCc1nccs1)NC(=O)c1ccccc1` is lower in melting point: 74 to 75 °C for the first, 64 to 65 °C for the second.

`O=C(CO)Cc1ccc2ccccc2c1` and `COc1ccc(C(=O)c2c[nH]c(Cc3ccccc3)n2)cc1` cannot be ordered by melting point: 109 to 110 °C for the first, 108 to 110 °C for the second.

First: O=C(CN1C(=O)c2ccccc2C1=O)c1ncc(C(F)(F)F)cc1Cl
Second: NS(=O)(=O)c1ccc(-n2nc(C(F)(F)F)c3c2-c2ccccc2CC3)cc1
The melting point of the first is lower: 162 °C for the first, 257 to 258 °C for the second.

First: N#CNC=Nc1ccc(-c2ncc[nH]2)cc1
Second: N#CC(=C1CCCN1)c1ccc(-c2ccccc2)cc1
The melting point of the first is higher: 202 to 203 °C for the first, 168 to 170 °C for the second.

First: Clc1ccc(OCSc2ncc(Cl)cn2)cc1
Second: COc1ccc(Nc2nc(=O)c3cccnc3s2)cc1
The melting point of the first is lower: 120 °C for the first, 250 to 251 °C for the second.

First: CCOC(=O)C1=C(C)NN=C(CC)C1c1ccc([N+](=O)[O-])cc1 (configuration not stated)
Second: CCCCNC(=O)C(C)(O[Si](C)(C)C(C)(C)C)c1ccc([N+](=O)[O-])cc1 (configuration not stated)
The melting point of the first is higher: 141 °C for the first, 49 to 50 °C for the second.

First: COC(=O)c1ccc(C#Cc2ccc(OCC(O)CO)c(C34CC5CC(CC(C5)C3)C4)c2)cc1 (configuration not stated)
Second: Cc1ccc(C(=O)c2c(C)cc(C)cc2OCC(O)CNC(C)C)cc1 (configuration not stated)
The melting point of the first is higher: 202 to 203 °C for the first, 89 to 91 °C for the second.

First: Nc1n[nH]c2c1CCC2
Second: Nn1c(C2CC2)n[nH]c1=O
The melting point of the first is lower: 116 to 120 °C for the first, 183 °C for the second.

First: CCC(CC)Nc1c([N+](=O)[O-])cc(C#N)c(COC)c1[N+](=O)[O-]
Second: COC(=O)CCCc1cc2c(Nc3cc(OC)c(OC)c(OC)c3)c(C#N)cnc2s1
The melting point of the first is lower: 46 to 49 °C for the first, 101 to 103 °C for the second.

First: COc1ccc2ccn3c(C(F)(F)F)nnc3c2c1
Second: CCOC(=O)c1nc2c(=O)[nH]c3cc(C(F)(F)F)ccc3n2c1Cn1cnc(Cl)c1Cl
The melting point of the first is lower: 152 to 154 °C for the first, 240 °C for the second.

First: O=C(Nc1ccc(O)cc1)C(=O)N1CCC(Cc2ccccc2)CC1
Second: CCC(CC)N(O)C(=O)Nc1ccc(C(=O)c2ccccc2)cc1
The melting point of the first is higher: 167 to 169 °C for the first, 156 to 157 °C for the second.

First: CC(C)[C@@H](N)C(=O)NCC(F)(F)F
Second: CC(C)C(NC(=O)C(C)(C)C)C(C)C
The melting point of the first is lower: 43 to 47 °C for the first, 107 to 109 °C for the second.

First: O=C(OCc1ccccc1)C1=C(S(=O)c2ccccc2)CC2CC(=O)N12 (configuration not stated)
Second: O=C1C=CC(c2ccccc2)(c2ccccc2)[C@@H]2CN(Cc3ccccc3)C[C@H]12 (racemic)
The melting point of the first is lower: 129 to 131 °C for the first, 132 °C for the second.

First: COc1ccc(CCN2CCC(n3ccc4ccc(CNC(C)=O)cc43)CC2)cc1
Second: CCOC(=O)c1ccc(C(Cc2ccncc2)c2ccc(OC)c(OC3CCCC3)c2)cc1 (configuration not stated)
The melting point of the first is lower: 101 to 102 °C for the first, 170 to 173 °C for the second.

Compared with `COC(=O)C(O)(c1ccc(C(F)(F)F)cc1)c1ccc(C(F)(F)F)cc1`, `NC(=O)c1cc(-c2ccnc(Nc3cccc(C(F)(F)F)c3)n2)ccn1` is higher in melting point: 68 °C for the first, 240 to 242 °C for the second.

First: CC(C)CC(=O)NC(=O)c1nnn(Cc2ccccc2)c1NC(=O)CC(C)C
Second: CCc1nc2c(C)cc(C)nc2n1Cc1ccc(C(CC(=O)NS(C)(=O)=O)c2ccccc2)cc1 (configuration not stated)
The melting point of the first is higher: 125 to 128 °C for the first, 118 to 123 °C for the second.

First: O=c1[nH]ncc2[nH]c(-c3ccc(OC(F)F)c(OC4CC4)c3)c(C3CC3)c12
Second: COc1ccc(C2=NN(C3CCN(C(=O)CN4C(=O)CCC4=O)CC3)C(=O)C(C)(C)C2)cc1OC
The melting point of the first is higher: 248 to 249 °C for the first, 177 to 179 °C for the second.

First: CCOC(=O)C1=C(C)NC(C)=C(C(=O)OCC)C1c1nc(-c2ccc(OC)cc2)c(-c2ccc(OC)cc2)s1
Second: COc1ccc(S(=O)(=O)Nc2cccnc2Nc2ccc(OC)nc2)cc1
The melting point of the first is higher: 177 to 178 °C for the first, 159 to 160 °C for the second.

First: CCOC(=O)c1cc(CCc2cc3c(s2)-n2c(C)nnc2CN=C3c2ccccc2Cl)ccc1CC(=O)Nc1cccc(/C=C/c2nc(C3CCC3)cs2)c1
Second: O=C(Nc1ccc2cc(CN3CCCC3)cnc2c1)c1ccc(-c2ccccc2)nc1
The melting point of the first is lower: 118 to 120 °C for the first, 208 to 210 °C for the second.

Compared with `Nc1cc(-n2cccc2)ccc1Nc1cccc(-c2cncnc2)c1`, `c1ccc(-c2ccn3nccc3n2)cc1` is lower in melting point: 190 to 192 °C for the first, 122 to 124 °C for the second.

Compared with `Cc1ccc(NC(=O)NCC2(c3ccccc3)CCCCC2)cc1`, `N#CC(CCN1CCC(C(=O)ON2C(=O)CCC2=O)(c2ccccc2)CC1)(c1ccccc1)c1ccccc1` is higher in melting point: 135 to 137 °C for the first, 156 to 158 °C for the second.

First: CC(=O)OCCOCn1cc(C)c(=O)[nH]c1=O
Second: CCOC(=O)N1C(=O)OC(c2c(Cl)cccc2OC)C1=O (configuration not stated)
The melting point of the first is lower: 105 to 107 °C for the first, 196 to 200 °C for the second.

First: CCN(CC)C(=O)c1nc2n(n1)-c1ccc(Cl)cc1C(c1ccccc1)=NC2
Second: Cc1ncc2n1-c1ccc(Cl)cc1C(c1ccccc1)=[N+]([O-])C2
The melting point of the first is lower: 175 to 177 °C for the first, 260 to 261 °C for the second.

Compared with `CCOC(=O)CCCn1nc(-c2c(-c3ccccc3)nn3ccccc23)ccc1=O`, `Cc1oc(-c2ccccc2)nc1CCc1nc(COc2cccc(CC(=O)O)c2)co1` is higher in melting point: 71 to 75 °C for the first, 127 to 128 °C for the second.

First: COc1ccccc1CC(=NCc1cccs1)N1C[C@@H]2C(=O)CCC(c3ccccc3)(c3ccccc3)[C@@H]2C1
Second: O=C(O)CCc1cc2cc(C(=O)c3ccccc3)ccc2n1S(=O)(=O)c1ccccc1
The melting point of the first is lower: 88 °C for the first, 138 °C for the second.

Compared with `Cc1cc(NC2CN(C(=O)OCc3ccccc3)CC2O)c2cc(C)c(-c3ccc(Cl)cc3Cl)n2n1` (configuration not stated), `COC(=O)c1c(Cl)cc(Cl)cc1NC(=O)CSc1ccc(NCc2ccc(Cl)cc2)cc1` is lower in melting point: 105 to 110 °C for the first, 96 to 98 °C for the second.

First: CC(C)(C)OC(=O)N1CCCC(c2ncc(-c3cnc(-c4ccccc4)nc3)[nH]2)C1 (configuration not stated)
Second: CC(C)(C)OC(=O)N1C[C@H](O)C[C@H]1C(=O)OC(c1ccccc1)c1ccccc1
The melting point of the first is higher: 130 °C for the first, 93 to 95 °C for the second.

First: COc1ccc(C=O)cc1OC(=O)c1ccccc1
Second: COc1cc(NC(=O)OCC2c3ccccc3-c3ccccc32)ccc1C=O
The melting point of the first is lower: 70 to 72 °C for the first, 187 to 188 °C for the second.

`COC(=O)c1ccccc1S(=O)(=O)NC(=O)n1nc(Oc2ccccc2)n(C)c1=O` and `CC(C)[C@H](NC(=O)OCc1ccccc1)C(=O)N[C@H](C=O)Cc1ccc(OCc2ccccc2)cc1` cannot be ordered by melting point: 161 °C for the first, 160 to 162 °C for the second.

Compared with `CC1(C)Oc2ccc(S(=O)(=O)C(F)(F)F)cc2[C@@H](N2Cc3c(F)cccc3C2=O)[C@@H]1O` (relative stereo), `CN1CCc2c(-c3ccc(S(=O)(=O)N(C)C)cc3)cc3c(c2C1)N(C)C(=O)C3=O` is lower in melting point: 259 to 261 °C for the first, 232 to 240 °C for the second.

First: CC(=O)c1ccc(OCC(O)COc2cccc([N+](=O)[O-])c2)cc1O (configuration not stated)
Second: CC1Cc2cc3c(cc2C(c2ccc([N+](=O)[O-])cc2)=NN1C(=O)CCl)OCO3 (configuration not stated)
The melting point of the first is lower: 119 to 122 °C for the first, 158 to 160 °C for the second.

First: CC(C)(C)COc1ccc(-n2cc(C(=O)O)cn2)cc1C#N
Second: Cc1nn(-c2ccc(F)cc2)cc1C(=O)O
The melting point of the first is higher: 199 to 200 °C for the first, 194 to 195 °C for the second.

First: COc1ccc(NCCNC(=O)c2ccc(OCC=C(C)CCC=C(C)C)cc2)cn1
Second: CC(=NO)c1ccc(OCC(O)(Cn2cncn2)C(C)(C)C)cc1 (configuration not stated)
The melting point of the first is lower: 97.9 to 99.3 °C for the first, 129 to 132 °C for the second.

First: C=CCn1nc(C(=O)NC)cc1OCCCN1CCN(c2cccc3sccc23)CC1
Second: CN1CCN(c2ccc(/C=C/c3cc(/C=C/c4ccc5cc[nH]c5c4)[nH]n3)c(Br)c2)CC1
The melting point of the first is higher: 138 to 140 °C for the first, 120 to 124 °C for the second.

Compared with `O=C1C(O)OCN1c1ccc(Cl)c(Br)c1` (configuration not stated), `COC(=O)C1(NS(=O)(=O)c2ccc3c(Cl)cnc(NC(=N)N)c3c2)CCOCC1` is higher in melting point: 139 to 140 °C for the first, 245 to 247 °C for the second.

First: COC(=O)N(C)CCCCC(=O)OC[C@@H]1CC(c2ccc(-c3ccc(N4C[C@H](Cn5ccnn5)OC4=O)cc3F)cn2)=NO1
Second: COc1cc(C2=CCCCC2)c(Cl)cc1C(=O)N1Cc2ccc(C(=O)N(C)CCCN(C)C)n2Cc2ccccc21
The melting point of the first is lower: 82 °C for the first, 116 to 119 °C for the second.

First: COC1=CCC(N)(O)C=C1 (configuration not stated)
Second: COC(=O)C1(NC(=O)Cc2c(C)ccc(-c3ccc(Cl)cc3)c2C)CCC(F)(F)CC1
The melting point of the first is lower: 138 to 140 °C for the first, 179 to 183 °C for the second.

First: Cc1ccc(O)c(C)c1N(C)C
Second: Cc1ccc(-c2nc(N3CCN(C)CC3)c3c(C)c(C#N)sc3n2)cc1
The melting point of the first is lower: 162 to 165 °C for the first, 207 to 209 °C for the second.

Compared with `CCOC1CCC2C3CCC4=CC(=O)CCC4=C3C(c3ccc(C=O)cc3)CC12C` (configuration not stated), `CC(CO)NC(=O)c1ccc(CN(C2CCCCC2F)S(=O)(=O)c2ccc(Cl)cc2)c(F)c1F` (configuration not stated) is lower in melting point: 149 to 152 °C for the first, 126 to 128 °C for the second.

First: CC(=O)Oc1cccc(-c2c3ccccc3c(Br)c3sc4ccccc4c23)c1
Second: NC(=O)c1c(F)ccc(OCc2nc3cc(-c4ccncc4)ccc3s2)c1F
The melting point of the first is lower: 74 to 76 °C for the first, 255 to 258 °C for the second.

First: C=CCC(CC)(CC=C)C(=O)O[C@H]1C[C@H](O)C=C2C=C[C@H](C)[C@H](CC[C@@H]3C[C@@H](O)CC(=O)O3)[C@H]21
Second: COc1cc(CN(C(N)=S)[C@@H](COC(=O)C(C)(C)C)Cc2ccccc2)ccc1OCCN
The melting point of the first is higher: 99 to 100 °C for the first, 49 °C for the second.

Compared with `CNCCCCCCCCCCCO`, `CCOCc1nc2c(N)nc(C)c(C)c2n1NCCCNS(C)(=O)=O` is higher in melting point: 58 °C for the first, 147 to 149 °C for the second.

Compared with `CCSC(C#N)C1=NCCc2cc(OC)c(OC)cc21` (configuration not stated), `COC(=O)c1c(SCc2ccc(OC)cc2)ncn1Cc1cc2c(cc1Cl)OCO2` is higher in melting point: 113 to 115 °C for the first, 123 °C for the second.

First: Cc1ccc(-c2ncc(-c3cccs3)s2)cc1
Second: Cn1cncc1C(O)(c1ccc(Cl)cc1)c1ccc2c(c1)C(c1cccc(Cl)c1)=NCC(=O)N2 (configuration not stated)
The melting point of the first is lower: 85.5 to 86.5 °C for the first, 200 °C for the second.

Compared with `CCOC(=O)C(=NOC)C(C)=NNC(=O)OC(C)(C)C`, `CC1COc2c(F)c(F)cc(C(=O)O)c2N1` (configuration not stated) is higher in melting point: 144 to 145 °C for the first, 200 to 202 °C for the second.

For `Cn1c(=O)c2c(N3CCCCC3)cccc2n2cnc(-c3noc(C4CC4)n3)c12`, the melting point was 185 to 192 °C.
